For assay [1], the system named is primary mouse brain endothelial cells (MBMECs). In words: Transendothelial electrical resistance (TEER) measurements of MBMEC monolayers. Type of assay: cell-based. As to conditions: recombinant human Ang-2 treatment; CD1 mice; FIG. 1 PANEL B. On the procedure: To assess the role of Angiopoietin 1 (Ang-1), Angiopoietin 2 (Ang-2), and a Tie-2 activator in modulating permeability at the blood-brain barrier transendothelial electrical resistance (TEER) measurements were performed to obtain continuous barrier tightness index of primary mouse brain endothelial cells (MBMECs).
TEER measurements were performed as follows: isolated mouse brain microvascular endothelial cells (MBMECs) (100,000 cells/cm^2, 4-6 mice/prep) were seeded onto 1 μm pore 24-well PET transwell inserts (Greiner Bio-One) pre-coated with fibronectin (5 μg/cm^2, Sigma-Aldrich™). The inserts were transferred to a cellZscope® device placed in a humidified incubator (37° C., 5% CO2) and impedance measurements obtained continuously. Treatment was started upon reaching a plateau in TEER levels.
Isolation of mouse brain microvascular endothelial cells (MBMECs) was conducted as follows: Meninges-free brains were pooled and homogenized followed by digesting the pellet with 0.75% Collagenase II (Worthington™) in buffer A (1:1:1 volume ratio) for 1 hour with shaking at 37° C. For removing myelin, samples were resuspended in 25% BSA and centrifuged at 1500×g for 30 min at 4° C., followed by digesting the pellet with Collagenase/Dispase® (Roche™) and DNase I (Worthington™) in buffer A for 12 min at 37° C. […]

Another assay relates to MBMEC monolayers. In words: Transwell permeability assay of MBMEC monolayers with fluorescent tracers. Type of assay: cell-based, mouse (C57BL/6J). As to conditions: MBMECs from C57BL/6J mice, FIG. 2. On the procedure: MBMECs were isolated from CD1 and C57BL/6J mice pooling 4-6 animals in each preparation and cultured on transwell inserts. Permeability of the MBMEC monolayers to 0.45 kD Lucifer-Yellow (LY; Sigma™), Texas Red® 3 kD dextran (Invitrogen™), TMR 20 kD dextran (Sigma™) and 70 kD FITC dextran (Sigma™) was determined as follows. Medium from the bottom chamber at each time point was read in a fluorescence plate reader (Tecan™) at the corresponding tracer excitation/emission and normalized to the apical chamber fluorescence with the ratio for the control condition set to 100%.
To rule out the possibility that Ang-2-mediated permeability was specific to the CD1 strain of mice used in the experiment, transwell assays applying fluorescent dextrans (3 kD, 20 kD, and 70 kD) and Lucifer-Yellow (LY 0.45 kD), using C57BL/6J mice were conducted.

For assay [2], the system named is stroke after MCAO in mice. As to the kind of experiment: Middle cerebral artery occlusion (MCAO) stroke model in mice. Type of assay: in vivo, mouse. On the procedure: Mice with endothelial-specific overexpression of hAng-2 (DT mice) underwent a permanent middle cerebral artery occlusion (MCAO). After a permanent MCAO was performed, animals were allowed to survive for 24 hours or 72 hours. Mice were anesthetized intraperitoneally (i.p.) with a combination of midazolam/medetomidine/fentanyl (5/0.5/0.05 mg/kg body mass). Anesthesia was terminated by i.p. injection of atipamezol/naloxone/flumazenil 2.5/1.2/0.5 mg/kg body weight). Brains were isolated and frozen down in Tissue TEK® O.C.T. and stored at −80° C. until use. WT mice also underwent the procedure as controls.
Larger infarcts were detected in DT mice that were subjected to MCAO as compared to WT mice that were subjected to MCAO after 24 hours and 72 hours (FIG. 9). Additionally, the IgG permeability in the stroke area was increased in DT mice (FIG. 10). Mice were treated with a Tie-2 activator shown below: […]

Assay [3] deals with Tie-2. In words: Western blot analysis of MBMECs pre-treated with hAng-2. Type of assay: cell-based, mouse. The conditions noted are these: MBMECs pretreated with hAng-2 (16 h, 500 ng/ml), then Tie-2 activator 50 μM, 10 min. As to the method: (§1) For the Western blot experiments, samples were solubilized in urea/SDS buffer (2.3 M urea, 1.5% SDS, 50 mM Tris, 25 mM TCEP, and 0.01% BPB) for 1.5 h at 30° C. with shaking. Solubilized samples were loaded into Tris-HCl Bis-acrylamide gels (8-15%), electrophoresed, and subsequently transferred to nitrocellulose membranes at 4° C. overnight. Membranes were blocked for 1 hour at room temperature on a 1× Roti®-block (Roth™), incubated with primary antibodies overnight at 4° C., washed with PBS-T (0.5% Tween®-20), incubated with horseradish peroxidase-conjugated or fluorescent secondary antibodies (LI-COR™) for 1 h at room temperature. Membranes were imaged in Odyssey® (LI-COR™) imaging device and quantitation was performed on exported raw tiff files using Image Studio™ 2.1 software (LI-COR™).
Activation of Tie-2/Akt by the Tie-2 activator alone indicates a direct and specific effect of this drug. Phosphorylation of VE-Cadherin responsible for increased junctional permeability was reduced upon treatment with the Tie-2 activator (FIGS. 13 and 14). This observation explains in part the decreased permeability and stroke size in vivo.
Background: Immunoblotting shows a protein as a band on a membrane.

Assay [4] deals with Tie-2. As to the kind of experiment: Western blot and staining of the stroke hemisphere of treated mice. Also noted: species or system mouse. The conditions noted are these: in vivo. On the procedure: as §1
Activation of Tie-2 upon treatment indicated by higher pTie-2 and pAkt levels in stroke hemispheres confirms in vivo activity (FIG. 15). […] FIG. 16 illustrates representative images (n=2 each group) of Tie-2 (red) and pTie-2 (green) staining of the stroke hemisphere.

Entries after “also recorded” stand apart in the source; their conditions may differ.

Consider two compounds from patent US9539245B2, “Combination of immunotherapies with activators of Tie-2” (Aerpio Therapeutics, Inc., priority 2014, dated 2017).

For the compound “rhAng-2: recombinant human angiopoietin 2, a Tie-2 ligand”, in assay [1], the “transendothelial electrical resistance (TEER) of MBMECs” value is given as “decrease in TEER; also recorded: decrease in transendothelial electrical resistance”. Besides, the “permeability to tracers (fluorescent dextrans 3 kD, 20 kD, 70 kD and Lucifer-Yellow 0.45 kD)” value with MBMEC monolayers is given as “increased permeability to tracers of all sizes”.
With `CCc1nc([C@H](Cc2ccc(NS(=O)(=O)O)cc2)NC(=O)[C@H](Cc2ccccc2)NC(=O)OC)cs1` [Tie-2 activator], the “stroke size (TTC staining)” value in assay [2] (WT mice after MCAO, compared to vehicle dH2O control, FIG. 11) is listed as “significantly decreased stroke sizes”. Also, in assay [2] (mice after MCAO, compared to control), the “permeability to IgG in the stroke area” value is “Decreased permeability to IgG”. In assay [2] (mice after stroke, FIG. 19), the “neurological behavior after stroke (behavior scoring test)” value was “improvement in neurological behavior”. In the assay on Tie-2 [3] (FIGS. 13 and 14), the “Akt activation (pAkt levels)” value was “increased Tie-2 and Akt activation”; the “Tie-2 activation (pTie-2 levels)” value is “increased levels of pTie-2”. Further, the “phosphorylation of VE-Cadherin (pVE-Cadherin)” value with Tie-2 [3] (n=3) was “decreased in tendency, but not significant”. For the same compound, in the assay with Tie-2 [4] (Western blot, n=7, FIG. 15), the “Akt activation (pAkt) in the stroke hemisphere” value was “increased Akt activation”. In addition, the “pTie-2 in the stroke hemisphere” value in the assay on Tie-2 [4] (treated mice compared to controls, FIGS. 15 and 16) is given as “increased pTie-2 staining”.
